This is an account of results in EP0929311B1, “INHIBITION OF APOPTOSIS USING INTERLEUKIN-1 beta-CONVERTING ENZYME (ICE)/CED-3 FAMILY INHIBITORS” (Idun Pharmaceuticals, Inc., priority 1996, dated 1998).

For this assay, the system named is granulocytes. The experiment in a line: Granulocyte/neutrophil survival in culture, hypodiploid nuclei by propidium iodide flow cytometry. The class given is cell-based. To be noted: at 48 hours; granulocytes cultured at 37°C, hypodiploid DNA. How it is done:
Whole blood anticoagulated with Acid Citrate Dextrose (ACD) with a ratio of 1:5 ACD to blood was collected (~100 ml).
Using polypropylene plastic ware, neutrophils are isolated as follows: • 30 ml of the whole blood is added to 50 ml polypropylene centrifuge tubes containing 15 ml of 6% Dextran (in Saline). The blood is allowed to sediment for approximately 1 hour at room temperature.
The turbid straw colored layer harvested from the top of the cylinders into 50 ml conical polypropylene tubes. The blood cells were pelleted by centrifugation at 240 xg (Sorvall centrifuge at 1200 rpm) for 12 min. at 4°C with the brake on low. […]
The supernatant was aspirated and the neutrophil pellet resuspended in 4.0 ml cold PBS (w/o Ca, Mg) on ice. 10 µl of the neutrophil cell suspension was diluted with 990 µl of Trypan blue (1:100) and cells counted using a hemacytometer. The cell number and viability were determined. […]
Neutrophils were resuspended in hypotonic fluorochrome solution at a density of 5×10^6 cells/ml. Propidium iodide fluorescence of individual nuclei was evaluated in FL2 and measured on a logarithmic scale while gating on physical parameters in forward and side scatter to exlude cell debris.
At least 10,000 events per sample were collected and the results were evaluated relative to a non-apoptotic neutrophil population. […]

Residues, ends and D or L forms follow the SMILES beside them. *: point of attachment. Cbz = O=C(OCc1ccccc1)*; CH2F = FC*

For `COC(=O)C[C@H](NC(=O)[C@H](C)NC(=O)[C@@H](NC(=O)OCc1ccccc1)C(C)C)C(=O)CF` [zVADfmk] (Cbz-Val-Ala-Asp(OMe)-CH2F), the “effect on improving granulocyte survival” value is “weak effect”.
